Experimental data from US11331327B2, “Antibacterial use of halogenated salicylanilides” (UNION therapeutics A/S, priority 2014, dated 2022).

Test system: S. aureus clinical isolates and S. aureus ATCC 29213
Test: MIC assay according to CLSI criteria, Example 2, S. aureus strains
Type: cell-based, Staphylococcus aureus
Settings: Staphylococcus aureus
Method in brief: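 S. aureus grown aerobically in cation-adjusted Mueller Hinton broth at 37° C. Exponential-phase cultures inoculated at about 5×10^5 cells per well, then incubated 18 hours at 37° C.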

Measured: MIC

CN[C@H](CC(C)C)C(=O)N[C@H]1C(=O)N[C@@H](CC(N)=O)C(=O)N[C@H]2C(=O)N[C@H]3C(=O)N[C@H](C(=O)N[C@H](C(=O)O)c4cc(O)cc(O)c4-c4cc3ccc4O)[C@H](O)c3ccc(c(Cl)c3)Oc3cc2cc(c3O[C@@H]2O[C@H](CO)[C@@H](O)[C@H](O)[C@H]2O[C@H]2C[C@](C)(N)[C@H](O)[C@H](C)O2)Oc2ccc(cc2Cl)[C@H]1O [Vancomycin]
1 µg/mL: ATCC29213, strain 9-1862936 | ATCC29213, strain 9-2625962 | ATCC29213, strain 9-2642158 | ATCC29213, strain 9-2955245 | ATCC29213, strain 9-26422166 | ATCC29213, strain 000040C | ATCC29213, strain 000041C | ATCC29213, strain 000274T | ATCC29213, strain 114660U | ATCC29213, strain 115242C | ATCC29213, strain 115268C | ATCC29213, strain 115273C | ATCC29213, strain 115295C | ATCC29213, strain 115303C | ATCC29213, strain 115370U | ATCC29213, strain 115427C | ATCC29213, strain 115445C | ATCC29213, strain 115561C | ATCC29213, strain 115691T | ATCC29213, strain 115740E | ATCC29213, strain 115810E | ATCC29213, strain 115903T | ATCC29213, strain 116122T | ATCC29213, strain ATCC 29213 | ATCC29213, strain E5-1029252 | ATCC29213, strain E5-1029558 | ATCC29213, strain E5-1030440 | ATCC29213, strain E5-1030472 | ATCC29213, strain E5-1030482 | ATCC29213, strain E5-1033076 (first line, r202) | ATCC29213, strain E5-1033076 (second line, r203) | ATCC29213, strain E5-1033088 | ATCC29213, strain E5-1033091 | ATCC29213, strain E5-1035277 | ATCC29213, strain E5-1035284 | ATCC29213, strain E5-1035775 | ATCC29213, strain E5-1035779 | ATCC29213, strain E5-1037958 | ATCC29213, strain E5-1037971 | ATCC29213, strain E5-1038279 | ATCC29213, strain E5-1038286 | ATCC29213, strain E5-1038294 | ATCC29213, strain E5-1039684 | ATCC29213, strain E5-1039697 | ATCC29213, strain E5-1041979 | ATCC29213, strain E5-1041980 | ATCC29213, strain E5-1041987 | ATCC29213, strain E5-1043184 | ATCC29213, strain E5-1043668 | ATCC29213, strain E5-1045179 | ATCC29213, strain E5-1046019 | ATCC29213, strain E5-1046020 | ATCC29213, strain E5-1046039 | ATCC29213, strain E5-1046070 | ATCC29213, strain E5-1046074 | ATCC29213, strain E5-1046096 | ATCC29213, strain E5-1046296 | ATCC29213, strain E5-1046297 | ATCC29213, strain E5-1046298 | ATCC29213, strain E5-1047585 | ATCC29213, strain E5-1047606 | ATCC29213, strain E5-1047924 | ATCC29213, strain E5-1048428 | ATCC29213, strain E5-1048654 | ATCC29213, strain EEFIC 01 | ATCC29213, strain EEFIC 02 | ATCC29213, strain K000772 | ATCC29213, strain K000796 | ATCC29213, strain K000863 | ATCC29213, strain K000864 | ATCC29213, strain K000866 | ATCC29213, strain R000020 | ATCC29213, strain R000024 | ATCC29213, strain U115579 | ATCC 29213 / MRSA, strain MRSA 01 | ATCC 29213 / MRSA, strain MRSA 03 | ATCC 29213 / MRSA, strain MRSA 05 | ATCC 29213 / MRSA, strain MRSA 07 | ATCC 29213 / MRSA, strain MRSA 08 | ATCC 29213 / MRSA, strain MRSA 10 | ATCC 29213 / MRSA, strain MRSA 11 | ATCC 29213 / MRSA, strain MRSA 13 | ATCC 29213 / MRSA, strain MRSA 14
2 µg/mL: ATCC29213, strain 115015T | ATCC29213, strain 115263C | ATCC29213, strain 115584D | ATCC29213, strain 115628T | ATCC29213, strain 115690C | ATCC29213, strain E5-1030469 | ATCC29213, strain E5-1041977 | ATCC29213, strain E5-1046085 | ATCC29213, strain E5-1046723 | ATCC29213, strain E5-1048204 | ATCC29213, strain E5-1048670 | ATCC29213, strain K115498 | ATCC29213, strain K115688 | ATCC29213, strain K115689 | ATCC29213, strain R000019 | ATCC 29213 / MRSA, strain MRSA 02 | ATCC 29213 / MRSA, strain MRSA 04 | ATCC 29213 / MRSA, strain MRSA 06 | ATCC 29213 / MRSA, strain MRSA 09
